Nine compounds from US20260060944A1, “PHARMACEUTICAL COMPOSITION AND USE THEREOF” (priority 2022, published 2026) can be followed below.

The test system of test [1] is human non-small cell lung cancer (A549) cell lines. Put plainly: Cell survival rate (MTS) of A549 cells. In kind it is cell-based. The following applies: for reduction in survival rate: individually administered at concentrations ranging from 2 to 80 nM. The procedure: (§1) Human cancer cell lines, including non-small cell lung cancer (A549), glioblastoma (U87), glioblastoma (T98G), erythroleukemia type cell line (K-562), acute monocytic leukemia (THP-1), hepatocellular carcinoma (HepG2), colorectal cancer (HCT116), ovarian cancer (TOV-21G), triple-negative breast cancer (MDA-MB-231), or drug-resistant human breast cancer (MCF7-resistant), were cultured in media supplemented with 10% (v/v) fetal bovine serum (FBS) (Penicillin-Streptomycin Solution, ACE Biolabs, CC1009), glutamine-enriched Nutrient Mixture F-12 Ham Kaighn's Modification (F-12/K, SIGMA-ALDRICH, USA), and RPMI-1640 (HiMedia Laboratories LLC, USA). The cell lines were separately incubated in a 5% CO2 atmosphere at 37° C. using a controlled incubator (Astec-SCA-165DS).
(§2) Different cancer cell lines were seeded in 96-well plates and allowed to adhere for 24 hours. Cells were then treated with combinations of three drugs, while untreated cells served as the control group. 20 μL of MTS reagent (Promega, USA) was added to each well and incubated at 37° C. for one hour. Optical density (OD) was measured at 490 nm using an ELISA detector (BioTek EPOCH2) to evaluate the ell viability and proliferation by using the following formula: […]
(§3) In some embodiments of the present invention, drug concentrations used for testing cancer cell lines is in nM and the effective dose range ranged from 0.8 nM to 83 nM.
To evaluate whether the pharmaceutical composition containing various pharmacologically active ions could produce synergistic drug effects, tests were conducted on human non-small cell lung cancer (A549) cell lines. The dose units in Table 2 are expressed in nM. The pharmacologically active ion used in this study was gluconate ion.
To evaluate whether varying dosages of the pharmaceutical composition of the present invention could inhibit the survival rate of human non-small cell lung cancer cell line (A549), cell survival analyses of A549 were conducted.
In this experiment, the pharmacologically active copper ion was cupric in the form of copper gluconate.

The subject of test [2] is glioblastoma (T98G) cell line. Put plainly: Cell survival rate (MTS) of T98G cells. The test is classed as cell-based, Human. How it is done:
as §1, §2, §3
To evaluate the inhibitory effect of the pharmaceutical composition of the present invention on the survival rate of glioblastoma (T98G) cell line, analysis on survival rate was performed.
The active copper ion used in this study was copper gluconate.

Test [3] concerns glioblastoma (U-87) cell line. Nature of the test: Cell survival rate (MTS) of U-87 cells. The test is classed as cell-based, Human. The procedure: as §1, §2, §3
To evaluate the inhibitory effect of the pharmaceutical composition of the present invention on the survival rate of glioblastoma (U-87) cell line, analysis on survival rate was performed.
The active copper ion used in this study was copper gluconate. […] Using the pharmaceutical composition, the concentrations could be reduced while achieving a higher inhibition rate.

Test [4] has as its system human non-small cell lung cancer (A549) cell line. Put plainly: In vivo tumor suppression, A549 subcutaneous tumor model in nude mice. Also noted: species or system Balb/c nude mice. The following applies: A549 tumors in nude mice; for Tumor Weight: after sacrifice. An excerpt: (§4) Female, 5-week-old Balb/c CAnN.Cg-Foxnlnu/CrlNarl nude mice were obtained from the National Laboratory Animal Center. […] Experiments commenced when they reached six weeks of age.
(§5) Nude mice of six weeks of age were used to establish two lung epithelial carcinoma and animal models. 1×10^7 cells of Human non-small cell lung cancer (NSCLC) cell line A549 and of human lung squamous carcinoma cell line H520, provided by the Food Industry Research and Development Institute in Taiwan, were subcutaneously injected 100 μL into the dorsal area near the right hind limb.
A549 model: 6 mice per group, administered orally once daily for 25 days.
(§6) H520 model: 7 mice per group, administered orally once daily for 13 days. The pharmacologically active multivalent ions used were copper ions in the form of copper gluconate.
(§7) Tumor volume was measured weekly using a tumor measurement device (TM900, Peira, Turnhout, Belgium). After five weeks of drug administration, the mice were sacrificed, and tumors were excised from the right hind limb. Tumor volume was calculated based on the longest and shortest diameters using the formula: […]
(§8) The tumors were then weighed and recorded. Tumor inhibition rates were calculated using the control group as a baseline: […]
A tumor model was established in nude mice via subcutaneous injection. Tumor size was monitored for 14 days, after which the mice were divided into six groups and treated with the pharmaceutical composition. The pharmaceutical-using group continued to be fed the test drug by oral gavage.

Test [5] deals with human lung squamous cell carcinoma (H520) cell line. Nature of the test: In vivo tumor suppression, H520 subcutaneous tumor model in nude mice. Details: species or system Balb/c nude mice. The following applies: H520 tumors in nude mice.
From the text: as §4, §5, §6, §7, §8
A tumor model was established in nude mice via subcutaneous injection. Tumor size was measured over 14 days, after which the mice were then divided into six groups and treated with the pharmaceutical composition. The pharmaceutical-using group continued to be fed the test drug by oral gavage. Due to the rapid growth rate of H520 tumors in vivo, animals were sacrificed when tumors reached a specific size. Tumor model nude mice were sacrificed after 13 days of administration to evaluate changes in tumor growth and observe the inhibitory effect of the test drug on tumors.

Test [6] has the same test system. Described as above. Details: species or system Balb/c nude mice. The settings on record: H520 tumors in nude mice, oral once daily.
Setting [7] is: oral once daily for 25 days, when sacrificed.
[8] abbreviates: oral once daily, Day 7 of administration.
[9] abbreviates: oral once daily for 13 days, when sacrificed.

`CCN(CC)C(=S)SSC(=S)N(CC)CC` [Disulfiram]: the “Survival Rate (%)” value in test [1] (single agent 1 nM (Table 2)) is recorded as 99.58%; in test [1] (single agent 80 nM (Table 3)), 93.85%; in test [2] (single agent 16 nM), 96.37%; in test [2] (single agent 41 nM), 97.27%; in test [2] (single agent 83 nM), 96.15%; in test [3] (single agent 16 nM), 102.66%. The “Survival Rate (%)” value in test [3] (single agent 41 nM) is on record as 101.02%; in test [3] (single agent 83 nM) it was 63.98%.

Consider `O=C(Nc1ccc([N+](=O)[O-])cc1Cl)c1cc(Cl)ccc1O` [Niclosamide], for which the “reduction in survival rate” value in test [1] is listed as “no significant reduction in survival rate”. Further, the “Survival Rate (%)” value came out at 112.66% in test [1] (single agent 2 nM (Table 3)); 98.00% in test [1] (single agent 6 nM (Table 2)); 92.50% in test [2] (single agent 8 nM); 87.87% in test [2] (single agent 16 nM); 89.33% in test [3] (single agent 8 nM); 88.60% in test [3] (single agent 16 nM). For the same compound, the entries for the “Tumor Weight” value in test [4] and in test [5] (after sacrifice) were 0.330 g and 0.955 g, respectively. Besides, the results for the “tumor volume inhibition rates compared to Group S1” value in test [4] (at the time of sacrifice) and in test [5] (at the time of sacrifice) were 12.78% and 30.49%, respectively. Moreover, the “average tumor weight inhibition rates compared to Group S1” value came out at 13.5% in test [4] (following sacrifice) and 30.5% in test [5] (after sacrifice). Also, the “Tumor Volume” value is on record as 396.1 mm^3 in test [4] (setting [7]); 73.4 mm^3 in test [4] (setting [8]); 89.7 mm^3 in test [4] (oral once daily, Day 11); 136.3 mm^3 in test [4] (oral once daily, Day 14); 179.6 mm^3 in test [4] (oral once daily, Day 17); 219.0 mm^3 in test [4] (oral once daily, Day 20). In addition, the “Tumor Volume” value in test [4] (oral once daily, Day 23) came to 319.8 mm^3; in test [5] (setting [9]), 1604.3 mm^3; in test [5] (oral once daily, Day 7), 538.8 mm^3; in test [6] (Day 4 of administration), 269.6 mm^3; in test [6] (Day 9) it was 802.4 mm^3; in test [6] (Day 11), 1204.1 mm^3.

On to `[Zn+2]` [zinc], for which the “Survival Rate (%)” value in test [1] (single agent 1 nM (Table 2)) is recorded as 104.71%.

As to `[Mg]` [magnesium], the “Survival Rate (%)” value in test [1] (single agent 1 nM (Table 2)) is reported as 100.52%.

For `COc1cc2ncnc(Nc3ccc(F)c(Cl)c3)c2cc1OCCCN1CCOCC1` [Group S4, Gefitinib], the entries for the “Tumor Weight” value in test [4] and in test [5] (after sacrifice) were 0.197 g and 0.981 g, respectively. Further, the “Tumor Volume” value in test [4] (setting [7]) amounted to 239.6 mm^3; in test [4] (setting [8]), 54.2 mm^3; in test [4] (oral once daily, Day 11), 69.5 mm^3; in test [4] (oral once daily, Day 14), 82.0 mm^3; in test [4] (oral once daily, Day 17), 102.8 mm^3; in test [4] (oral once daily, Day 20), 141.3 mm^3. The “Tumor Volume” value in test [4] (oral once daily, Day 23) came to 202.6 mm^3; in test [5] (setting [9]), 1653.1 mm^3; in test [5] (oral once daily, Day 7) it was 506.4 mm^3; in test [6] (Day 4 of administration), 259.6 mm^3; in test [6] (Day 9), 898.6 mm^3; in test [6] (Day 11), 1290.0 mm^3.

`[Fe+2]` [ferrous]: in test [1] (single agent 1 nM (Table 2)), the “Survival Rate (%)” value is on record as 106.27%.

Turning to `[Mn+2]` [manganese], the “Survival Rate (%)” value in test [1] (single agent 1 nM (Table 2)) came to 104.35%.

With copper gluconate [cupric], the “reduction in survival rate” value in test [1] is given as “no significant reduction in survival rate”. The “Survival Rate (%)” value is on record as 103.70% in test [1] (single agent 1 nM (Table 2)); 109.28% in test [1] (single agent 80 nM (Table 3)); 102.03% in test [2] (single agent 16 nM); 102.19% in test [2] (single agent 41 nM); 98.35% in test [2] (single agent 83 nM); 103.71% in test [3] (single agent 16 nM). The “Survival Rate (%)” value was 103.97% in test [3] (single agent 41 nM) and 101.73% in test [3] (single agent 83 nM).

On to `[Ca]` [calcium], for which the “Survival Rate (%)” value in test [1] (single agent 1 nM (Table 2)) worked out at 103.98%.
